Experimental data as given in US9949980B2, “Drugs to prevent HPV infection” (Wisconsin Alumni Research Foundation, priority 2008, dated 2018).
Where two headings read alike, the source gives them in different places.

Tests used:
HPV16 pseudoviruses = experiment: microbe, parasite or virus in culture; type: cell-based; details: Human papillomavirus 16, HEK-293T, 48 h
Protocol: (§1) FIG. 1. High throughout screen (HTS) for identifying inhibitors of HPV infection. Shown is a schematic showing basic steps in the HTS. […] Briefly, HPV16 pseudoviruses containing the SEAP reporter genes are analyzed for their ability to infect as judged by the levels of secreted alkaline phosphatase in the tissue culture supernatant (light grey arrows). Cell viability was assessed in parallel on the same wells (dark grey arrows). In the specific HTS carried out in this study, the compounds were added at 3 uM/1% DMSO final concentration (black arrow) 4 hours prior to infection.
(§2) After incubation at 37° C. for 24 hrs, 35 μL of media was removed. […] Cells were incubated at 37° C. for 48 hrs. 2.5 μL of media was collected for SEAP assay using a PHOSPHA-LIGHT chemiluminescent alkaline phosphatase assay (Applied Biosystems). Cell viability was determined using the CellTiter Glo Luminescent Cell Viability Assay™ (Promega).

in vitro = details: human, Viability (CelTiter Glow)
Protocol: as §1, §2

[1] = read-out: Infectivity (SEAP Activity), 3 μM HTS standard concentration, 293T cells, 48 hrs
[2] = read-out: Infectivity vs. viability, 3 μM HTS standard concentration, ratio infectivity/viability

| Structure (SMILES) | activity at 3 µM (HPV16 pseudoviruses; [1]) | activity at 3 µM (HPV16 pseudoviruses; [2]) | viability at 52 h, 3 μM (in vitro) |
| --- | --- | --- | --- |
| O=C1NCCCC1c1n[nH]c(=S)n1Cc1ccccc1 (centres unmarked) [BTB 00471, 3-[4-(phenylmethyl)-5-sulfanylidene-1H-1,2,4-triazol-3-yl]piperidin-2-one] | 41% | 37.5% | 109% |
| CN(C)C=C=C(O)c1ccccc1C(=O)c1ccc(Cl)cc1 [BTB 08556, (4-chlorophenyl)-[2-(3-dimethylamino-1-hydroxypropa-1,2-dienyl)phenyl]methanone] | 55.3% | 52% | 106% |
| CC(C)(C)NC(=O)C=Cc1cc([N+](=O)[O-])ccc1Sc1ccc(C(F)(F)F)cn1 [BTB 09390, N1-(tert-butyl)-3-(5-nitro-2-{[5-(trifluoromethyl)-2-pyridyl]thio}phenyl)acrylamide] | 28.9% | 35.6% | 81.2% |
| N#CCCOCc1cccc2ccccc12 [Compound 5102121, 3-(1-naphthylmethoxy)propanenitrile] | 55.8% | 50.6% | 110% |
| CC(=NNC(N)=O)C1CC1(C)C(C)(C)C (centres unmarked) [Compound 5104160, 1-(2-tert-butyl-2-methylcyclopropyl)-1-ethanone semicarbazone] | 63% | 56.2% | 112% |
| O=S(=O)(Nc1nc2ccccc2nc1Nc1ccccc1)c1ccccc1 [Compound 5123541, N-(3-anilino-2-quinoxalinyl)benzenesulfonamide] | 47% | 44.5% | 106% |
| O=C(NC(NC(=S)Nc1ccccc1[N+](=O)[O-])C(Cl)(Cl)Cl)c1ccco1 (centres unmarked) [Compound 5143070, N-[2,2,2-trichloro-1-({[(2-nitrophenyl)amino]carbonothioyl}amino)ethyl]-2-furamide] | 43.7% | 40.5% | 108% |
| O=C(Nc1ccc(Cl)cc1)Nc1ccc([N+](=O)[O-])cc1Br [Compound 5191771, N-(2-bromo-4-nitrophenyl)-N′-(4-chlorophenyl)urea] | 39.9% | 41.9% | 95.2% |
| O=C(NC(=S)Nc1ccc([N+](=O)[O-])cc1O)C12CC3CC(CC(C3)C1)C2 [Compound 5197089, N-{[(2-hydroxy-4-nitrophenyl)amino]carbonothioyl}-1-adamantanecarboxamide] | 2.01% | 2.99% | 67% |
| CCN(C(=O)c1ccccc1Cl)c1ccccc1 [Compound 5272305, 2-chloro-N-ethyl-N-phenylbenzamide] | 47.4% | 45.6% | 104% |
| O=C(CSc1nc2cc([N+](=O)[O-])ccc2[nH]1)Nc1ccc2c(c1)OCO2 [Compound 5349092, N-1,3-benzodioxol-5-yl-2-[(5-nitro-1H-benzimidazol-2-yl)thio]acetamide] | 52.5% | 51.1% | 103% |
| NC(=O)NC(c1ccccc1)c1ccccc1Br (centres unmarked) [Compound 5571356, N-[(2-bromophenyl)(phenyl)methyl]urea] | 59.1% | 56% | 106% |
| COc1cc(C=C2C(=O)NN(c3ccc(Cl)c(Cl)c3)C2=O)c([N+](=O)[O-])cc1OC [Compound 5581710, 1-(3,4-dichlorophenyl)-4-(4,5-dimethoxy-2-nitrobenzylidene)-3,5-pyrazolidinedione] | 23.9% | 31.9% | 75.1% |
| O=C1NN(c2ccc(Cl)c(Cl)c2)C(=O)C1=Cc1ccc(Cl)c([N+](=O)[O-])c1 [Compound 5585119, 4-(4-chloro-3-nitrobenzylidene)-1-(3,4-dichlorophenyl)-3,5-pyrazolidinedione] | 54.4% | 50.5% | 108% |
| Cc1ccc(NC(=O)Cc2ccc(F)cc2)cc1 [Compound 5585700, 2-(4-fluorophenyl)-N-(4-methylphenyl)acetamide] | 55.4% | 52.5% | 105% |
| O=[N+]([O-])c1cccc(C2Nc3ccc(Cl)cc3C3C=CCC32)c1 (centres unmarked) [Compound 5658856, 8-chloro-4-(3-nitrophenyl)-3a,4,5,9b-tetrahydro-3H-cyclopenta[c]quinoline] | 14.4% | 19.1% | 75.7% |
| COc1cccc(C(=O)Nc2ccc3oc(-c4ccc(F)cc4Cl)nc3c2)c1 [Compound 5715107, N-[2-(2-chloro-4-fluorophenyl)-1,3-benzoxazol-5-yl]-3-methoxybenzamide] | 42.5% | 38.2% | 111% |
| CCOc1ccc(N(CC(=O)Nc2c(C)cccc2C)S(=O)(=O)c2ccc(SC)cc2)cc1 [Compound 5740080, N~1~-(2,6-dimethylphenyl)-N~2~-(4-ethoxyphenyl)-N~2~-{[4-(methylthio)phenyl]sulfonyl}glycinamide] | 42.2% | 40.7% | 104% |
| O=C(Nc1ccccc1)Nc1nnc(Cc2ccc(F)cc2)s1 [Compound 5789300, N-[5-(4-fluorobenzyl)-1,3,4-thiadiazol-2-yl]-N′-phenylurea] | 40.1% | 40.8% | 98.4% |
| O=C(Nc1sc2c(c1C(=O)NCCc1ccccc1)CCCCC2)c1ccccc1F [Compound 5794700, 2-[(2-fluorobenzoyl)amino]-N-(2-phenylethyl)-5,6,7,8-tetrahydro-4H-cyclohepta[b]thiophene-3-carboxamide] | 49.2% | 45.1% | 109% |
| COc1ccc(Cl)cc1C(=O)Nc1ccc(NC(=O)c2ccc(C(C)(C)C)cc2)cc1 [Compound 5795860, N-{4-[(4-tert-butylbenzoyl)amino]phenyl}-5-chloro-2-methoxybenzamide] | 47.1% | 42.4% | 111% |
| Cc1ccnc(NS(=O)(=O)c2ccc(N3C(=O)c4ccccc4C3=O)cc2)n1 [Compound 5842264, 4-(1,3-dioxo-1,3-dihydro-2H-isoindol-2-yl)-N-(4-methyl-2-pyrimidinyl)benzenesulfonamide] | 67% | 59.6% | 113% |
| O=C1C(=Cc2cccc(O)c2)SC(=S)N1c1ccc(Cl)cc1 [Compound 5851060, 3-(4-chlorophenyl)-5-(3-hydroxybenzylidene)-2-thioxo-1,3-thiazolidin-4-one] | 56.3% | 55.3% | 102% |
| CCOC(=O)[C@H]1C(=O)c2ccccc2C(=O)/C1=C/c1ccc(CC)cc1 [Compound 5860904, ethyl (2R,3E)-3-[(4-ethylphenyl)methylidene]-1,4-dioxonaphthalene-2-carboxylate] | 21.9% | 33.2% | 66% |
| O=C(Nc1ccc(Cl)c(Cl)c1)Nc1ccccc1C(=O)O [Compound 5963375, 2-({[(3,4-dichlorophenyl)amino]carbonyl}amino)benzoic acid] | 14.2% | 20.2% | – |
